Laboratory results taken from US9249129B2, “Morpholino substituted urea derivatives as mTOR inhibitors” (CELLZOME LIMITED, priority 2010, dated 2016).

Experiments:
Assay in all cases: kinobeads assay with mass spectrometry detection of kinases (kinase selectivity profile)
Format in all cases: binding
kinases (kinome) [1] = target: T1, kinases (kinome) (Homo sapiens, UniProt Q16512); details: PKN1 (AGC), IPI00412672
T1 construct: determined in kinobeads assays with mass spectrometry detection of kinases as described previously; endogenous in cells; host or cells: cell lysate
Text: (§1) The protein kinase complement of the human genome (the kinome) was described previously (Manning et al., 2002. Science 298(5600):1912-1934). Sequence accession numbers are defined by the International Protein Index (IPI) (Kersey et al., 2004. Proteomics 4(7):1985-1988).

kinases (kinome) [2] = target: T2, kinases (kinome) (Homo sapiens, UniProt Q14289); details: PYK2 (TK), IPI00029702
T2 construct: determined in kinobeads assays with mass spectrometry detection of kinases as described previously; endogenous in cells; host or cells: cell lysate
Text: as §1

kinases (kinome) [3] = target: T3, kinases (kinome) (Homo sapiens, UniProt P68400); details: CK2a1 (Other), IPI00016613
T3 construct: determined in kinobeads assays with mass spectrometry detection of kinases as described previously; endogenous in cells; host or cells: cell lysate
Text: as §1

kinases (kinome) [4] = target: T4, kinases (kinome) (Homo sapiens, UniProt Q9BVS4); details: RIOK2 (Atypical), IPI00306406
T4 construct: determined in kinobeads assays with mass spectrometry detection of kinases as described previously; endogenous in cells; host or cells: cell lysate
Text: as §1

kinases (kinome) [5] = target: T5, kinases (kinome) (Homo sapiens, UniProt P42356); details: PIK4Ca (Lipid Kinase), IPI00070943
T5 construct: determined in kinobeads assays with mass spectrometry detection of kinases as described previously; endogenous in cells; host or cells: cell lysate
Text: as §1

kinases (kinome) [6] = target: T6, kinases (kinome) (Homo sapiens, UniProt P07947); details: YES (TK), IPI00013981
T6 construct: determined in kinobeads assays with mass spectrometry detection of kinases as described previously; endogenous in cells; host or cells: cell lysate
Text: as §1

kinases (kinome) [7] = target: T7, kinases (kinome) (Homo sapiens, UniProt P23458); details: JAK1 (TK), IPI00784013
T7 construct: determined in kinobeads assays with mass spectrometry detection of kinases as described previously; endogenous in cells; host or cells: cell lysate
Text: as §1

kinases (kinome) [8] = target: T8, kinases (kinome) (Homo sapiens, UniProt Q13315); details: ATM (Atypical), IPI00298306
T8 construct: determined in kinobeads assays with mass spectrometry detection of kinases as described previously; endogenous in cells; host or cells: cell lysate
Text: as §1

kinases (kinome) [9] = target: T9, kinases (kinome) (Homo sapiens, UniProt O14965); details: AurA (Other), IPI00298940
T9 construct: determined in kinobeads assays with mass spectrometry detection of kinases as described previously; endogenous in cells; host or cells: cell lysate
T9 sequence (O14965 1-403): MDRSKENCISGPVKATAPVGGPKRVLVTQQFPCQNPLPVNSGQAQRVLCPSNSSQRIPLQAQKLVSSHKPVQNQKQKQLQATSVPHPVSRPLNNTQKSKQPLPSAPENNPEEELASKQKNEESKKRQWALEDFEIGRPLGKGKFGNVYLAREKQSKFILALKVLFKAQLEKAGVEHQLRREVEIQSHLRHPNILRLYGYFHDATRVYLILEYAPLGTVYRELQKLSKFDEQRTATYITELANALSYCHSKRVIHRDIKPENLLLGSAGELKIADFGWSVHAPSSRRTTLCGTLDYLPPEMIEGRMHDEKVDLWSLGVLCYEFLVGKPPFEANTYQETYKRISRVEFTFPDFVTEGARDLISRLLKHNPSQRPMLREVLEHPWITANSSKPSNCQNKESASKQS
Text: as §1

kinases (kinome) [10] = target: T10, kinases (kinome) (Homo sapiens, UniProt P36897); details: TGFbR1 (TKL), IPI00005733
T10 construct: determined in kinobeads assays with mass spectrometry detection of kinases as described previously; endogenous in cells; host or cells: cell lysate
T10 sequence (P36897 34-503): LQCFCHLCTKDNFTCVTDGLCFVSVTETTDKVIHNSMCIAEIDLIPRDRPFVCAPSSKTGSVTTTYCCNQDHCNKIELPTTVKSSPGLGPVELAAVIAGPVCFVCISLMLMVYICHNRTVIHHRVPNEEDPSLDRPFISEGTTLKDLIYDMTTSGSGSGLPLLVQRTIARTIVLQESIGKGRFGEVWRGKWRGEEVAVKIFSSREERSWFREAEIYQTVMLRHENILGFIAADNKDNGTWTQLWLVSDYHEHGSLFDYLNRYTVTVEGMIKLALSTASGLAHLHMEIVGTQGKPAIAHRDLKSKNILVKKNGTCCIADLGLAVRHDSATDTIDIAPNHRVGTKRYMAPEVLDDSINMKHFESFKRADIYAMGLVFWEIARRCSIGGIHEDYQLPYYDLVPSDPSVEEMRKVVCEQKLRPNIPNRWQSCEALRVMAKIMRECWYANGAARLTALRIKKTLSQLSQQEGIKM
Text: as §1

kinases (kinome) [11] = target: T11, kinases (kinome) (Homo sapiens, UniProt P49674); details: CK1e (CK1), IPI00027729
T11 construct: determined in kinobeads assays with mass spectrometry detection of kinases as described previously; endogenous in cells; host or cells: cell lysate
Text: as §1

kinases (kinome) [12] = target: T12, kinases (kinome) (Homo sapiens, UniProt Q13705); details: ACTR2B (TKL), IPI00437565
T12 construct: determined in kinobeads assays with mass spectrometry detection of kinases as described previously; endogenous in cells; host or cells: cell lysate
Text: as §1

kinases (kinome) [13] = target: T13, kinases (kinome) (Homo sapiens, UniProt P15056); details: BRAF (TKL), IPI00303797
T13 construct: determined in kinobeads assays with mass spectrometry detection of kinases as described previously; endogenous in cells; host or cells: cell lysate
Text: as §1

kinases (kinome) [14] = target: T14, kinases (kinome) (Homo sapiens, UniProt O43353); details: RIPK2 (TKL), IPI00021917
T14 construct: determined in kinobeads assays with mass spectrometry detection of kinases as described previously; endogenous in cells; host or cells: cell lysate
Text: as §1

kinases (kinome) [15] = target: T15, kinases (kinome) (Homo sapiens, UniProt Q9NSY1); details: BIKE (Other), IPI00337426
T15 construct: determined in kinobeads assays with mass spectrometry detection of kinases as described previously; endogenous in cells; host or cells: cell lysate
Text: as §1

kinases (kinome) [16] = target: T16, kinases (kinome) (Homo sapiens, UniProt Q6PHR2); details: ULK3 (Other), IPI00910978
T16 construct: determined in kinobeads assays with mass spectrometry detection of kinases as described previously; endogenous in cells; host or cells: cell lysate
T16 sequence (Q6PHR2 1-472): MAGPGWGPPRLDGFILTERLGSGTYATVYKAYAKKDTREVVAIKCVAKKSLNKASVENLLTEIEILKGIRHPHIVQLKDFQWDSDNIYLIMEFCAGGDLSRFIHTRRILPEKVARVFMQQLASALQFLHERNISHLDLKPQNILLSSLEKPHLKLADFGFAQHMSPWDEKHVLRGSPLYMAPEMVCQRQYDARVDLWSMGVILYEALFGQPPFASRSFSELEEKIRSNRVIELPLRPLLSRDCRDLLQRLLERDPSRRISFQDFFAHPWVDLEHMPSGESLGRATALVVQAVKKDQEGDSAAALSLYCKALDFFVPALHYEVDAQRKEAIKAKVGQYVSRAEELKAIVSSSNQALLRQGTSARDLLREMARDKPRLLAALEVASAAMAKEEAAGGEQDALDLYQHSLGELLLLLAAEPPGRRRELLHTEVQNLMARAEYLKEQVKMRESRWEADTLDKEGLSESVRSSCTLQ
Text: as §1

kinases (kinome) [17] = target: T17, kinases (kinome) (Homo sapiens, UniProt P48730); details: CK1d (CK1), IPI00011102
T17 construct: determined in kinobeads assays with mass spectrometry detection of kinases as described previously; endogenous in cells; host or cells: cell lysate
Text: as §1

Measured: IC50

T14 sequence (O43353 whole entry): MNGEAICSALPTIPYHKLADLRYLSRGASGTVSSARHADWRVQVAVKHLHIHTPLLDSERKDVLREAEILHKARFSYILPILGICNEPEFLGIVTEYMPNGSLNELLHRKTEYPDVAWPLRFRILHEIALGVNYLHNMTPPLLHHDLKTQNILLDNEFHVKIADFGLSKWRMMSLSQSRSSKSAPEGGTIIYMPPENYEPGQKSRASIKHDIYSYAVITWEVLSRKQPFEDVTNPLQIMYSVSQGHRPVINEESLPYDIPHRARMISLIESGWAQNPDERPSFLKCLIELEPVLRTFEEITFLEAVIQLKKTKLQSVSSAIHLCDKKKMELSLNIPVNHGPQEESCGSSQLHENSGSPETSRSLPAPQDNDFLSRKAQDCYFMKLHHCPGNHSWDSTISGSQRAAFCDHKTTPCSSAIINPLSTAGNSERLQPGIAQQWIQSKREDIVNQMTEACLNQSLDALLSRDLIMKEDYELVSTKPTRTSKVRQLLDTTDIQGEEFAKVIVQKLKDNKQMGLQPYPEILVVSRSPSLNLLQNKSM
T17 sequence (P48730 whole entry): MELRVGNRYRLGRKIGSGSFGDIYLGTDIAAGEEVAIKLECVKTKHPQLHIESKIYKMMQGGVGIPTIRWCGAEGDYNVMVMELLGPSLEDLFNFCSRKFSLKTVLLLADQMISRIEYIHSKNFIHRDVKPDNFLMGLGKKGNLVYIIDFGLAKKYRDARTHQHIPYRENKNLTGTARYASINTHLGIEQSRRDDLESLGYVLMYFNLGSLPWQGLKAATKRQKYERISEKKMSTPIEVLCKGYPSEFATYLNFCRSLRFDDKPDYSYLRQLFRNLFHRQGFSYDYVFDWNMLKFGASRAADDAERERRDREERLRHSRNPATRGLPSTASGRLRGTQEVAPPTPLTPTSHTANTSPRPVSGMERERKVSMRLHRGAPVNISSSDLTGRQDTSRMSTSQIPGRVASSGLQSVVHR
T5 sequence (P42356 whole entry): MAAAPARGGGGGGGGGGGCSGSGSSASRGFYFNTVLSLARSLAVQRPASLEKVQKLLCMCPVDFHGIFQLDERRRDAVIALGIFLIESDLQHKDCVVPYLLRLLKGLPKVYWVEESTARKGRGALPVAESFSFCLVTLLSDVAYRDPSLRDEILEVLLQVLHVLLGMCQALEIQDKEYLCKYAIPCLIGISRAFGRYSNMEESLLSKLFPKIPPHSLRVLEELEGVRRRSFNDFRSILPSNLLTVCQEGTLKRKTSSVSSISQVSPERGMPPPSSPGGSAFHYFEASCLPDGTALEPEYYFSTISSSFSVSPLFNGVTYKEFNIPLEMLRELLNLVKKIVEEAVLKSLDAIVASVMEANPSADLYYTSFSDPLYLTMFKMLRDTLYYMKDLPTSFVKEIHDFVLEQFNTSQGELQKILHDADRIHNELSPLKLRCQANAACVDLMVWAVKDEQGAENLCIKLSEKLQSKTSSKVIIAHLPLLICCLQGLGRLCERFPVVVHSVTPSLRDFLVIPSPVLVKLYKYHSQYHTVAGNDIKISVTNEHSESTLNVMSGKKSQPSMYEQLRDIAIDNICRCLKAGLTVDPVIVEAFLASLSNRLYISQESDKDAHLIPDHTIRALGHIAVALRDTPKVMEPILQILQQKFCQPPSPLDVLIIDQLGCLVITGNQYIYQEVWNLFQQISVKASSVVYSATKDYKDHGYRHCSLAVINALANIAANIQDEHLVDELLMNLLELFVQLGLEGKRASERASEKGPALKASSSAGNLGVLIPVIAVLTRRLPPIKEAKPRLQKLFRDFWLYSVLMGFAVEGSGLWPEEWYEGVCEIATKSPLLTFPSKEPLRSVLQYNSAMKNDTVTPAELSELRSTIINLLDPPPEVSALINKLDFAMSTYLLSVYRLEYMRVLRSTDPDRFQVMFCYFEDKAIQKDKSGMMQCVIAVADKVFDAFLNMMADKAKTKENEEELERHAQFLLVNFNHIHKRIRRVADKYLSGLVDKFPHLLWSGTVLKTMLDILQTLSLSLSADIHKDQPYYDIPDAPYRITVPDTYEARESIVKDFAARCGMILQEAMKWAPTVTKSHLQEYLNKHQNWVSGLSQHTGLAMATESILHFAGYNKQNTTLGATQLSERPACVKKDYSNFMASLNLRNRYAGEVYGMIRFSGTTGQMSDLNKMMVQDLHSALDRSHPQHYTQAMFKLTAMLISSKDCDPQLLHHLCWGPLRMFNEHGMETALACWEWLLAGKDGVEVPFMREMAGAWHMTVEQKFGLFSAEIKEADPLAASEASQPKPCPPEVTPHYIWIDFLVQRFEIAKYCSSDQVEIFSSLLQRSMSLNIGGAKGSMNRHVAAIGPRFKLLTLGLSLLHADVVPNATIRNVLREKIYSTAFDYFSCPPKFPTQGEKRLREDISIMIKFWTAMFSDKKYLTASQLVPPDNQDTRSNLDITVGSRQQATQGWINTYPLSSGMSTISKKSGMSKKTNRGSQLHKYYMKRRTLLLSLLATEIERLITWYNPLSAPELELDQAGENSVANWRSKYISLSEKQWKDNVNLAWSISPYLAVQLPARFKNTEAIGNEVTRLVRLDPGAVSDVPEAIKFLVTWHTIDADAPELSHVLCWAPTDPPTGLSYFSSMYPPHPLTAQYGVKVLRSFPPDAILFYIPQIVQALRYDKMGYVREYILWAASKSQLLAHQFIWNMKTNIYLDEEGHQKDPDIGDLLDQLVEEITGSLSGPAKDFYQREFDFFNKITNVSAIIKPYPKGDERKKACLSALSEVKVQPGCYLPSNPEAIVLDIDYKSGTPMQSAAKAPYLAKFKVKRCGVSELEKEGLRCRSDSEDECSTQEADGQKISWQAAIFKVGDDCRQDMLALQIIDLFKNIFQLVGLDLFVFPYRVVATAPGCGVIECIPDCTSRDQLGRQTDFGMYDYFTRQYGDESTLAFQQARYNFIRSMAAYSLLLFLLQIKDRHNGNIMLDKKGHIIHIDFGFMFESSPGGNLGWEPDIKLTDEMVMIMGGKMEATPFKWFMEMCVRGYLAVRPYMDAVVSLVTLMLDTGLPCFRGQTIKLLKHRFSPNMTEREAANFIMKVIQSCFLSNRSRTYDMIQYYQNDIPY
T12 sequence (Q13705 19-512): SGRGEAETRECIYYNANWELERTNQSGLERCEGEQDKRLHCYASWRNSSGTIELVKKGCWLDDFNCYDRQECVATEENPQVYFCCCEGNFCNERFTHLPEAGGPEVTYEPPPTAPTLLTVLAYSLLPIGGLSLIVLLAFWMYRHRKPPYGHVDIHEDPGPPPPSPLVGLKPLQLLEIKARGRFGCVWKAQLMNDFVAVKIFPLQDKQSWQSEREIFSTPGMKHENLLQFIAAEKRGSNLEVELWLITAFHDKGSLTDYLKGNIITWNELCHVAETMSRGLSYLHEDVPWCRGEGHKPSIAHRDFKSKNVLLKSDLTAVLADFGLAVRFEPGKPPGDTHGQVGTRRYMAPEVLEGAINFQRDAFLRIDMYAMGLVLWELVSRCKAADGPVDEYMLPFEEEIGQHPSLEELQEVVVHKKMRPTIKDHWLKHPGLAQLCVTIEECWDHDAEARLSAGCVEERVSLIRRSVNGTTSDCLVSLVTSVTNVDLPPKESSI
T15 sequence (Q9NSY1 whole entry): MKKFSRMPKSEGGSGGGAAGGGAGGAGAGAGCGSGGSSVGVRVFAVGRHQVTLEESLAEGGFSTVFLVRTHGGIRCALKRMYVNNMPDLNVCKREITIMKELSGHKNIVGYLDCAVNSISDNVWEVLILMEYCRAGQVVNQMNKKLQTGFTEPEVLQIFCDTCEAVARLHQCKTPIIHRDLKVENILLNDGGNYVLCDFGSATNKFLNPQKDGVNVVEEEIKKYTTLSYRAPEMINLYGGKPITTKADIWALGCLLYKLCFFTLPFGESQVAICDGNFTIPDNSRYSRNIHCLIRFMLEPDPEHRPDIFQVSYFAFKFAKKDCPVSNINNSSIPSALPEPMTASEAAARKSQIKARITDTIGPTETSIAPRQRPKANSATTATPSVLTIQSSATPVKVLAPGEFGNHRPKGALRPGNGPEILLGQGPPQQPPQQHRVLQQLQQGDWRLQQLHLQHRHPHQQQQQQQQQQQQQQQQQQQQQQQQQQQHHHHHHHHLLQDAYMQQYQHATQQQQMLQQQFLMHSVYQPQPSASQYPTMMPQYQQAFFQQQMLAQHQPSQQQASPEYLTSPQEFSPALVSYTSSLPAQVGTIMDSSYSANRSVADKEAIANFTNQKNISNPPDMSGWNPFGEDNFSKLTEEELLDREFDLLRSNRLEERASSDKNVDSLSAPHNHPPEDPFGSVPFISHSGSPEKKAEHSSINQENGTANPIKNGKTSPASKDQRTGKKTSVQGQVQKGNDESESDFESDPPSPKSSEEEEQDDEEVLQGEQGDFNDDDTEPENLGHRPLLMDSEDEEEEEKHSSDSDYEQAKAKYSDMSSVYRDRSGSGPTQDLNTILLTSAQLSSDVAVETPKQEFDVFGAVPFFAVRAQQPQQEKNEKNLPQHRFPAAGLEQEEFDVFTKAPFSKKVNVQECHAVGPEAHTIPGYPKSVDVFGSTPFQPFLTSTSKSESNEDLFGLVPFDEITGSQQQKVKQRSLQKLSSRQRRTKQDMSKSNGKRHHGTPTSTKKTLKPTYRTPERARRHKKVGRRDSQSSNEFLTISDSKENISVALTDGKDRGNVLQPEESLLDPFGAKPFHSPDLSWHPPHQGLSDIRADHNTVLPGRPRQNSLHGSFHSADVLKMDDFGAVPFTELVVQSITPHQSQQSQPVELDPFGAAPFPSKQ
T3 sequence (P68400 whole entry): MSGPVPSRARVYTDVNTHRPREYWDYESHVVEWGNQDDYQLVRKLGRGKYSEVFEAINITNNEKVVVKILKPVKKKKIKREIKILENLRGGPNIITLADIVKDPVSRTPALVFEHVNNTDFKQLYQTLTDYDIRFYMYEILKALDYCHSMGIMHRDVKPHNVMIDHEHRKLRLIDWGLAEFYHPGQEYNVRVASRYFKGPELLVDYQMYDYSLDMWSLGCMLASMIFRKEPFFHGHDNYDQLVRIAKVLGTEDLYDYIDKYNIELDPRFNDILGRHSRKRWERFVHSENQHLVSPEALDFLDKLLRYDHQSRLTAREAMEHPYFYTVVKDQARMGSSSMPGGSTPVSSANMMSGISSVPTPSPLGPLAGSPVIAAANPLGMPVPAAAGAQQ

C[C@H]1COCCN1c1nc(-c2ccc(NC(=O)NC3CC3)cc2)cc(-c2ccccc2S(C)(=O)=O)n1 [Example 4, (S)-1-cyclopropyl-3-(4-(2-(3-methylmorpholino)-6-(2-(methylsulfonyl)phenyl)pyrimidin-4-yl)phenyl)urea]
> 10 µM: all assays above

C[C@H]1COCCN1c1cc(-c2ccccc2S(C)(=O)=O)nc(-c2ccc(NC(=O)NC3CC3)cc2)n1 [Example 6, (S)-1-cyclopropyl-3-(4-(4-(3-methylmorpholino)-6-(2-(methylsulfonyl)phenyl)pyrimidin-2-yl)phenyl)urea]
> 10 µM: all assays above

CCNC(=O)Nc1ccc(-c2cc(-c3ccccc3C#N)nc(N3CCOC[C@@H]3C)n2)cc1 [Example 8, (S)-1-(4-(6-(2-cyanophenyl)-2-(3-methylmorpholino)pyrimidin-4-yl)phenyl)-3-ethylurea]
> 10 µM: all assays above

C[C@H]1COCCN1c1nc(-c2ccc(NC(=O)NC3CC3)cc2)cc(-c2cc(F)ccc2S(C)(=O)=O)n1 [Example 40, (S)-1-cyclopropyl-3-(4-(6-(5-fluoro-2-(methylsulfonyl)phenyl)-2-(3-methylmorpholino)pyrimidin-4-yl)phenyl)urea]
> 10 µM: all assays above

C[C@H]1COCCN1c1cc(-c2ccccn2)nc(-c2ccc(NC(=O)NCCO)cc2)n1 [Example 43, (S)-1-(2-hydroxyethyl)-3-(4-(4-(3-methylmorpholino)-6-(pyridin-2-yl)pyrimidin-2-yl)phenyl)urea]
> 10 µM: all assays above

C[C@H]1COCCN1c1nc(-c2ccc(NC(=O)NC3CC3)cc2)cc(-c2cccnc2S(C)(=O)=O)n1 [Example 46, (S)-1-cyclopropyl-3-(4-(2-(3-methylmorpholino)-6-(2-(methylsulfonyl)pyridin-3-yl)pyrimidin-4-yl)phenyl)urea]
> 10 µM: all assays above

C[C@H]1COCCN1c1nc(-c2ccc(NC(=O)N[C@H]3CCC[C@@H]3O)cc2)cc(-c2cc(F)ccc2S(C)(=O)=O)n1 [Example 76, 1-(4-(6-(5-fluoro-2-(methylsulfonyl)phenyl)-2-((S)-3-methylmorpholino)pyrimidin-4-yl)phenyl)-3-((1S,2S)-2-hydroxycyclopentyl)urea]
not listed: kinases (kinome) [17]
> 10 µM: all other assays above
